{
  "source": "patent US20260014147A1",
  "about": "“STAT6 DEGRADERS” (Gilead Sciences, Inc., priority 2024, published 2026)",
  "data": [
    {"biological_target": "T1, STAT6 (endogenous, HiBiT-tagged) in HeLa LgBiT clone 4.14 cells (Homo sapiens, UniProt P42226)", "T1 construct": "These cells express endogenous STAT6; host or cells: HeLa LgBiT clone 4.14", "T1 sequence (P42226 1-847)": "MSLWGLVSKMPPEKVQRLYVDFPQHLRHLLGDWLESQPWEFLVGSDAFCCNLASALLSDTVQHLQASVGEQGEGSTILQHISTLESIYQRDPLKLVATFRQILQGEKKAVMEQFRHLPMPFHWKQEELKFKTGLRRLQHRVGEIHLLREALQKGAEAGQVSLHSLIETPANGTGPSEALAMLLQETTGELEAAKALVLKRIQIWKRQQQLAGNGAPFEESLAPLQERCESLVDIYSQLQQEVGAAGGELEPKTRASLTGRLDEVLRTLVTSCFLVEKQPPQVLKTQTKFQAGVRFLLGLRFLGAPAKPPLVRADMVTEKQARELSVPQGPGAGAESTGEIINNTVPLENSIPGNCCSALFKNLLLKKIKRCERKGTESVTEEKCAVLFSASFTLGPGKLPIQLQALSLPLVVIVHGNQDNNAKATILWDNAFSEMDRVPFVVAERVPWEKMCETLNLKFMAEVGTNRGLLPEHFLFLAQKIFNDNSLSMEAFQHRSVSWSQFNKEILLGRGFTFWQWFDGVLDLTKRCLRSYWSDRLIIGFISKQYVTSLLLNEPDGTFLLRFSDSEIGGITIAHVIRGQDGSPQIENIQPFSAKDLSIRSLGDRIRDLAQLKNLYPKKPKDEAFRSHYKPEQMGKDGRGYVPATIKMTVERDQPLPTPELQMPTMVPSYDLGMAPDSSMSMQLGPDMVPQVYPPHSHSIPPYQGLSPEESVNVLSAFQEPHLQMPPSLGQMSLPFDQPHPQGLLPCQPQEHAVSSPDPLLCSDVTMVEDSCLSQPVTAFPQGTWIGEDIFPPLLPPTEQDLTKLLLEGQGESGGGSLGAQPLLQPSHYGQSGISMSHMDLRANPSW", "experiment": "STAT6 Degrader Assay (HiBiT based, HeLa LgBiT clone 4.14 cells, luminescence, DC50)", "assay_type": "cell-based", "conditions": "DC50 provided for test compounds with >80% Emax, geometric mean, read-out: STAT6 degradation DC50", "protocol": "(§1) This was a HiBit based assay. A HeLa cell line stably transfected with a small protein, LgBit (Large Bit) was obtained from Promega. These cells express endogenous STAT6. A small 11 amino acid gene sequence (HiBiT) was inserted in the STAT6 gene using CRISPR technology. Once STAT6 protein is expressed in the cells, the HiBiT sequence will bind the LgBit in the cells resulting in a functional NanoBiT protein, giving a luminescent tag to STAT6. Single cell clones were prepared and the clone 4.14 was selected for the assay based on that clone showing high luminescence, high STAT6 phosphorylation upon stimulation with IL-4, and inhibition of luminescence when cells were treated with STAT6 siRNA. HeLa LgBiT clone 4.14 cells were suspended in DMEM with 10% FCS, 1% Pen/Strep, Na-pyrovate and Hygromycin B, at a concentration of […]. 5000 cells were added pr well of a 384 well plate and 20 nL of compound was added by Echo® liquid handler. NN6394A (terfenadine, a toxic compound) was added to control wells at 50 µM concentration to establish the assay window. In these wells the cells are dead which equals 100% degradation of STAT6. After 4-24 h of incubation at 37° C. under 5% CO2/95% air, […] substrate (Nano-GLO®) was added to the wells and the plates were centrifuged and incubated for 0.5 h. The luminescence in the wells as a measure of non-degraded STAT6 was measured in a plate reader (BMG Pherastar FSX). The dose-response curves for Examples 2a2, 2t1, 2 h3, and 2r1 are shown below (where percent degradation is plotted vs. test compound concentration in M on a log-scale).", "units": {"DC50": "pM"}, "values": [
      {"smiles": "Cn1c(CN2CCC(c3ccc(-c4nnc5ccc(N6CCC(CN7CCN(c8ccc(NC9CCC(=O)NC9=O)cc8F)CC7)CC6)nn45)cc3)CC2)cc2c(-c3ccc(N)nc3)ccnc21", "note": "(centres unmarked) [Example 2r1, 3-((4-(4-((1-(3-(4-(1-((4-(6-aminopyridin-3-yl)-1-methyl-1H-pyrrolo[2,3-b]pyridin-2-yl)methyl)-piperidin-4-yl)phenyl)-[1,2,4]triazolo[4,3-b]pyridazin-6-yl)piperidin-4-yl)methyl)piperazin-1-yl)-3-fluorophenyl)-amino)piperidine-2,6-dione]", "DC50": 350}
    ]},
    {"biological_target": "T1, STAT6 (endogenous, HiBiT-tagged) in HeLa LgBiT clone 4.14 cells", "experiment": "STAT6 Degrader Assay (HiBiT based, HeLa LgBiT clone 4.14 cells, luminescence, DC50)", "assay_type": "cell-based", "conditions": "Emax provided for test compounds with <80% Emax (and 2c15), geometric mean, read-out: STAT6 degradation Emax", "protocol": "as §1", "units": {"Emax": "%"}, "values": [
      {"smiles": "CN(C(=O)c1ccc(C2CCN(Cc3cc4c(-c5ccc6[nH]ncc6c5)ccnc4n3C)CC2)cc1)c1ccc(C2CCN(c3ccc(NC4CCC(=O)NC4=O)cc3F)CC2)cc1", "note": "(centres unmarked) [Example 2j1, 4-(1-((4-(1H-indazol-5-yl)-1-methyl-1H-pyrrolo[2,3-b]pyridin-2-yl)methyl)piperidin-4-yl)-N-(4-(1-(4-((2,6-dioxopiperidin-3-yl)amino)-2-fluorophenyl)piperidin-4-yl)phenyl)-N-methylbenzamide]", "Emax": "70 to 80"},
      {"smiles": "CN(C(=O)c1ccc(C2CCN(Cc3cc4c(-c5ccc6[nH]ncc6c5)ccnc4n3C)CC2)cc1)c1ccc(C2CCN(c3ccc(NC4CCC(=O)NC4=O)cc3)CC2)cc1", "note": "(centres unmarked) [Example 2j2, 4-(1-((4-(1H-indazol-5-yl)-1-methyl-1H-pyrrolo[2,3-b]pyridin-2-yl)methyl)piperidin-4-yl)-N-(4-(1-(4-((2,6-dioxopiperidin-3-yl)amino)phenyl)piperidin-4-yl)phenyl)-N-methylbenzamide]", "Emax": "40 to 50"},
      {"smiles": "Cn1c(CN2CCC(c3ccc(C(=O)N4CCC(CN5CCN(c6ccnc(NC7CCC(=O)NC7=O)n6)CC5)CC4)cc3)CC2)cc2c(-c3ccc4[nH]ncc4c3)ccnc21", "note": "(centres unmarked) [Example 2k3, 3-((4-(4-((1-(4-(1-((4-(1H-indazol-5-yl)-1-methyl-1H-pyrrolo[2,3-b]pyridin-2-yl)methyl)-piperidin-4-yl)benzoyl)piperidin-4-yl)methyl)piperazin-1-yl)pyrimidin-2-yl)amino)piperidine-2,6-dione]", "Emax": "30 to 40"},
      {"smiles": "CNc1ccc(-c2ccnc3c2cc([C@@H](C)N2CC=C(c4c(C)cc(C(=O)N5CCC(CCn6cc(-c7ccc(NC8CCC(=O)NC8=O)cc7)nn6)CC5)cc4F)CC2)n3C)cn1", "note": "(stereo partly drawn) [Example 2c57, 3-((4-(1-(2-(1-(3-fluoro-5-methyl-4-(1-((R)-1-(1-methyl-4-(6-(methylamino)pyridin-3-yl)-1H-pyrrolo[2,3-b]pyridin-2-yl)ethyl)-1,2,3,6-tetrahydropyridin-4-yl)benzoyl)piperidin-4-yl)ethyl)-1H-1,2,3-triazol-4-yl)phenyl)amino)piperidine-2,6-dione]", "Emax": "< 20"},
      {"smiles": "C[C@H](c1cc2c(-c3ccc(N)nc3)ccnc2n1C)N1CCC(c2ccc(C(=O)N3CCC(CN4CCN(c5ccc(NC6CCC(=O)NC6=O)cc5F)CC4)CC3)cc2)CC1", "note": "(stereo partly drawn) [Example 2c13, 3-((4-(4-((1-(4-(1-((R)-1-(4-(6-aminopyridin-3-yl)-1-methyl-1H-pyrrolo[2,3-b]pyridin-2-yl)ethyl)-piperidin-4-yl)benzoyl)piperidin-4-yl)methyl)piperazin-1-yl)-3-fluorophenyl)amino)piperidine-2,6-dione]", "Emax": "< 20"},
      {"smiles": "Cn1c(CN2CCC(c3ccc(C(=O)N4CCC(CN5CCN(c6ccc(NC7CCC(=O)NC7=O)c(F)c6)CC5)CC4)cc3)CC2)cc2c(-c3ccc4[nH]ncc4c3)ccnc21", "note": "(centres unmarked) [Example 2b2, 3-((4-(4-((1-(4-(1-((4-(1H-indazol-5-yl)-1-methyl-1H-pyrrolo[2,3-b]pyridin-2-yl)methyl)piperidin-4-yl)benzoyl)piperidin-4-yl)methyl)piperazin-1-yl)-2-fluorophenyl)amino)piperidine-2,6-dione]", "Emax": "70 to 80"},
      {"smiles": "Cn1c(CN2CCC(c3ccc(C(=O)N4CCC(CN5CCN(Cc6ccc(NC7CCC(=O)NC7=O)cc6)CC5)CC4)cc3)CC2)cc2c(-c3ccc4[nH]ncc4c3)ccnc21", "note": "(centres unmarked) [Example 2s1, 3-((4-((4-((1-(4-(1-((4-(1H-indazol-5-yl)-1-methyl-1H-pyrrolo[2,3-b]pyridin-2-yl)methyl)-piperidin-4-yl)benzoyl)piperidin-4-yl)methyl)piperazin-1-yl)methyl)phenyl)amino)piperidine-2,6-dione]", "Emax": "60 to 70"}
    ]}
  ]
}
